Reference: patent US6645983B1, “Pharmaceutical compositions comprising 4-quinolones for treating cancers” (Laboratoire L. Lafon, priority 1999, dated 2003)
Where two headings read alike, the source gives them in different places.

How the values were obtained:
SW1088 = experiment: MTT test, cytotoxic activity on non-clonogenic cell lines; type: cell-based; settings: Homo sapiens, 10^−5 M, mean value
Procedure, shortened: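 Human astrocytoma SW1088 cells seeded, grown 24 h at 37° C, 5% CO2, then exposed to compounds at 10^−5 to 10^−10 M versus solvent control. Viability by MTT reduction: 3 h MTT incubation, formazan dissolved in DMSO and read by spectrophotometry.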

T24 = experiment: MTT test, cytotoxic activity on non-clonogenic cell lines; type: cell-based; settings: Homo sapiens, T-24, 10^−5 M, mean value
Procedure, shortened: (§1)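 Human bladder cancer lines were seeded at 20 000–50 000 cells/ml and, after 24 h, exposed to compounds at 10^−5 to 10^−10 M against a solvent control. Formazan was dissolved in DMSO and viability was read by spectrophotometric optical density.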

J82 = experiment: as above; type: cell-based; settings: Homo sapiens, 10^−5 M, mean value
Procedure, shortened: as §1

U-373MG = experiment: as above; type: cell-based; settings: Homo sapiens, U373 MG, 10^−5 M, mean value
Procedure, shortened: (§2)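 Human cancer lines seeded at 20 000–50 000 cells/ml, allowed 24 h to attach, then exposed to compounds at 10^−5 to 10^−10 M versus solvent control.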

U-87MG = experiment: as above; type: cell-based; settings: Homo sapiens, 10^−5 M, mean value
Procedure, shortened: as §2

PC-3 = experiment: as above; type: cell-based; settings: Homo sapiens, 10^−5 M, mean value
Procedure, shortened: as §2

A549 = experiment: as above; type: cell-based; settings: Homo sapiens, 10^−5 M, mean value
Procedure, shortened: as §2

A-427 = experiment: as above; type: cell-based; settings: Homo sapiens, 10^−5 M, mean value
Procedure, shortened: as §2

T-47D = experiment: as above; type: cell-based; settings: Homo sapiens, T47D, 10^−5 M, mean value
Procedure, shortened: as §2

HCT-15 [1] = experiment: as above; type: cell-based; settings: Homo sapiens, mean value
Procedure, shortened: as §2

MCF7 = experiment: as above; type: cell-based; settings: Homo sapiens, 10^−5 M, mean value
Procedure, shortened: as §2

LoVo = experiment: as above; type: cell-based; settings: Homo sapiens, 10^−5 M, mean value
Procedure, shortened: as §2

HCT-15 [2] = system: HCT-15
HCT-15 [3] = experiment: cells; settings: Homo sapiens, HCT-15, read-out: concentration that inhibits by 50% (IC50) the in vitro cell growth of the HCT-15 line
[4] = 72 hours incubation, MTT, read-out: mean optical density, expressed as percentage relative to the mean optical density under the control condition (100%)

Work on COc1ccc(-c2cnc3c(OC)ccc(OC)c3c2OCCN(C)C)cc1 [CRL8370, N-{2-[5,8-Dimethoxy-3-(4-methoxyphenyl)-4-quinolyl]oxy}ethyl-N,N-dimethylamine] yielded a viability at 10 µM (SW1088; 72 hours of incubation, control condition = 100%, read-out: mean optical density as percentage of control, SW1088) of 99.4%, a melting point of 69 to 70 °C and a viability at 10 µM (T24; 72 hours of incubation, control condition = 100%, read-out: mean optical density as percentage of control, T24) of 74.3%. For the same compound, the viability at 10 µM (J82; 72 hours of incubation, control condition = 100%, read-out: mean optical density as percentage of control, J82) was 102%, the viability at 10 µM (U-373MG; 72 hours of incubation, control condition = 100%, read-out: mean optical density as percentage of control, U-373MG) was 105% and the viability at 10 µM (U-87MG; U-87 MG, 72 hours of incubation, control condition = 100%, read-out: mean optical density as percentage of control, U-87MG) was 104%. For the same compound, the viability at 10 µM (PC-3; 72 hours of incubation, control condition = 100%, read-out: mean optical density as percentage of control, PC-3) was 87.1%, the viability at 10 µM (A549; 72 hours of incubation, control condition = 100%, read-out: mean optical density as percentage of control, A549) was 85.6% and the viability at 10 µM (A-427; 72 hours of incubation, control condition = 100%, read-out: mean optical density as percentage of control, A-427) was 76%. It also gave a viability at 10 µM (T-47D; 72 hours of incubation, control condition = 100%, read-out: mean optical density as percentage of control, T-47D) of 88.5%, a viability at 10 µM (HCT-15 [1]; 10^−5 M, 72 hours of incubation, control condition = 100%, read-out: mean optical density as percentage of control, HCT-16) of 103% and a viability at 10 µM (MCF7; 72 hours of incubation, control condition = 100%, read-out: mean optical density as percentage of control, MCF7) of 88.5%. For the same compound, the viability at 10 µM (LoVo; 72 hours of incubation, control condition = 100%, read-out: mean optical density as percentage of control, LoVo) was 95.1% and the “amplification compared with the activity of adriamycin alone (gain / activity alone)” value (HCT-15 [2]; 10^−5 M compound + 10^−7 M adriamycin, 15.2/42.8) was “about 35%”.

COc1ccc(-c2cn(CCN(C)C)c3cc(OC)ccc3c2=O)cc1 [CRL8469, N-[3-(Dimethylamino)ethyl]-7-methoxy-3-(4-methoxyphenyl)-1,4-dihydro-4-quinolinone] gave a viability at 10 µM (SW1088; [4]) of 105%, a melting point of 142 to 143 °C and a viability at 10 µM (T24; T24, 72 hours incubation, MTT, read-out: mean optical density, expressed as percentage relative to the mean optical density under the control condition (100%)) of 98.1%. For the same compound, the viability at 10 µM (J82; [4]) was 89.5%, the viability at 10 µM (U-373MG; U-373MG, 72 hours incubation, MTT, read-out: mean optical density, expressed as percentage relative to the mean optical density under the control condition (100%)) was 102% and the viability at 10 µM (U-87MG; U-87MG, 72 hours incubation, MTT, read-out: mean optical density, expressed as percentage relative to the mean optical density under the control condition (100%)) was 108%. It also gave a viability at 10 µM (PC-3; [4]) of 99.9%, a viability at 10 µM (A549; [4]) of 100% and a viability at 10 µM (A-427; [4]) of 102%. For the same compound, the viability at 10 µM (T-47D; T-47D, 72 hours incubation, MTT, read-out: mean optical density, expressed as percentage relative to the mean optical density under the control condition (100%)) was 103%, the viability at 10 µM (HCT-15 [1]; HCT-16, 10^−5 M, 72 hours incubation, MTT, read-out: mean optical density, expressed as percentage relative to the mean optical density under the control condition (100%)) was 101% and the viability at 10 µM (MCF7; [4]) was 97.6%. For the same compound, the viability at 10 µM (LoVo; [4]) was 95.9%.

In the case of COc1cccc2c1C(=O)c1c(O)c3c(c(O)c1C2=O)C[C@@](O)(C(=O)CO)C[C@@H]3O[C@H]1C[C@H](N)[C@H](O)[C@H](C)O1 [adriamycin, reference compound], the IC50 (HCT-15 [3]) is reported as 100 nM and the inhibition (HCT-15 [2]) is reported as 42.8%.

COc1cc([C@@H]2c3cc4c(cc3[C@@H](O[C@@H]3O[C@@H]5CO[C@@H](C)O[C@H]5[C@H](O)[C@H]3O)[C@H]3COC(=O)[C@H]23)OCO4)cc(OC)c1O [etoposide] gave an IC50 (HCT-15 [3]) of 1000 nM.
